Key:
[1] = tested on: ABUTH; assay: Pre-emergence herbicidal action against ABUTH; type: in vivo, Abutilon theophrasti
Method in brief: (§1)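 Pre-emergence soil-surface spray of formulated compound (WP or EC; 600 to 800 l/ha; 0.2% wetting agent) over seeds sown in sandy loam. After 3 weeks under greenhouse conditions, damage is estimated visually in percent against untreated plants.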

[2] = tested on: ALOMY; assay: Pre-emergence herbicidal action against ALOMY; type: in vivo, Alopecurus myosuroides; conditions: 80 g/ha, pre-emergence, scored visually after 3 weeks vs untreated controls (100% = plants have died, 0% = like control plants)
Method in brief: as §1

[3] = tested on: AMARE; assay: Pre-emergence herbicidal action against AMARE; type: in vivo, Amaranthus retroflexus
Method in brief: as §1

[4] = tested on: AVEFA; assay: Pre-emergence herbicidal action against AVEFA; type: in vivo, Avena fatua; conditions: Avena fatua, 504 h, pre-emergence
Method in brief: as §1

[5] = tested on: ECHCG; assay: Pre-emergence herbicidal action against ECHCG; type: in vivo, Echinochloa crus-galli
Method in brief: as §1

[6] = tested on: MATIN; assay: Pre-emergence herbicidal action against MATIN; type: in vivo, Matricaria inodora
Method in brief: as §1

[7] = tested on: SETVI; assay: Pre-emergence herbicidal action against SETVI; type: in vivo, Setaria viridis; conditions: dosage 80 g/ha
Method in brief: as §1

[8] = tested on: VIOTR; assay: Pre-emergence herbicidal action against VIOTR; type: in vivo, Viola tricolor
Method in brief: as §1

[9] = tested on: DIGSA; assay: Pre-emergence herbicidal action against DIGSA; type: in vivo, Digitaria sanguinalis; conditions: Digitaria sanguinalis, 504 h
Method in brief: as §1

[10] = tested on: ABUTH; assay: Post-emergence herbicidal action against ABUTH; type: in vivo, Abutilon theophrasti; conditions: dosage 20 g/ha, visual assessment about 3 weeks after treatment vs untreated controls
Method in brief: (§2)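 Greenhouse plants in sandy loam were sprayed at the one-leaf stage, 2 to 3 weeks after sowing, with WP or EC formulations as aqueous suspension or emulsion (600 to 800 l/ha water, 0.2% wetting agent). Visual damage was scored about 3 weeks later versus untreated controls, 0% = like control, 100% = dead.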

[11] = tested on: AVEFA; assay: Post-emergence herbicidal action against AVEFA; type: in vivo, Avena fatua; conditions: visual assessment about 3 weeks after treatment, 100% = plants have died, 0% = like control plants
Description: Seeds of monocotyledonous and dicotyledonous weed and crop plants are laid out in sandy loam soil in wood-fiber pots, covered with soil and cultivated in a greenhouse under good growth conditions. 2 to 3 weeks after sowing, the test plants are treated at the one-leaf stage. The compounds of the invention, formulated in the form of wettable powders (WP) or as emulsion concentrates (EC), are then sprayed onto the green parts of the plants in the form of an aqueous suspension or emulsion at a water application rate equivalent to 600 to 800 l/ha, with addition of 0.2% wetting agent. After the test plants have been left to stand in the greenhouse under optimal growth conditions for about 3 weeks, the action of the preparations is assessed visually in comparison to untreated controls (herbicidal action in percent (%): 100% activity=the plants have died, 0% activity=like control plants). […] The tables below illustrate, in an illustrative manner, the post-emergence herbicidal action of the compounds of the invention, the herbicidal activity being stated in percent.

[12] = tested on: ECHCG; assay: Post-emergence herbicidal action against ECHCG; type: in vivo, Echinochloa crus-galli
Method in brief: as §2

[13] = tested on: SETVI; assay: Post-emergence herbicidal action against SETVI; type: in vivo, Setaria viridis; conditions: dosage 20 g/ha
Method in brief: as §2

[14] = tested on: VERPE; assay: Pre-emergence herbicidal action against VERPE; type: in vivo, Veronica persica; conditions: dosage 80 g/ha
Method in brief: as §1

[15] = tested on: ALOMY; assay: Post-emergence herbicidal action against ALOMY; type: in vivo, Alopecurus myosuroides; conditions: dosage 20 g/ha, visual assessment about 3 weeks after treatment vs untreated controls
Method in brief: as §2

[16] = tested on: AMARE; assay: Post-emergence herbicidal action against AMARE; type: in vivo, Amaranthus retroflexus; conditions: 20 g/ha, visual assessment about 3 weeks after treatment, 100% = plants have died, 0% = like control plants
Method in brief: as §2

[17] = tested on: MATIN; assay: Post-emergence herbicidal action against MATIN; type: in vivo, Matricaria inodora
Method in brief: as §2

[18] = tested on: PHBPU; assay: Post-emergence herbicidal action against PHBPU; type: in vivo, Pharbitis purpurea; conditions: dosage 20 g/ha
Method in brief: as §2

[19] = tested on: VERPE; assay: Post-emergence herbicidal action against VERPE; type: in vivo, Veronica persica
Method in brief: as §2

[20] = tested on: VIOTR; assay: Post-emergence herbicidal action against VIOTR; type: in vivo, Viola tricolor
Method in brief: as §2

[21] = 80 g/ha, scored visually after 3 weeks vs untreated controls (100% = plants have died, 0% = like control plants)

## Cc1c(C(=O)Nc2nnnn2C)ccc(C(F)(F)F)c1C(=O)NCC(F)(F)F [Example 1-29]
[1]; Abutilon theophrasti, 504 h, 80 g/ha, scored visually after 3 weeks vs untreated controls (100% = plants have died, 0% = like control plants)
  pest or weed control at 80 g/ha: 100%
[2]; Alopecurus myosuroides, 504 h
  pest or weed control at 80 g/ha: 100%
[3]; Amaranthus retroflexus, 504 h, 20 g/ha, scored visually after 3 weeks vs untreated controls, 100% = plants have died, 0% = like control plants
  pest or weed control at 20 g/ha: 100%
[3]; Amaranthus retroflexus, 504 h, 80 g/ha, scored visually after 3 weeks vs untreated controls, 100% = plants have died, 0% = like control plants
  pest or weed control at 80 g/ha: 100%
[4]; 80 g/ha
  pest or weed control at 80 g/ha: 90%
[4]; 20 g/ha, scored visually after 3 weeks, 100% = plants have died, 0% = like control plants
  pest or weed control at 20 g/ha: 80%
[5]; Echinochloa crus-galli, 504 h, 80 g/ha
  pest or weed control at 80 g/ha: 90%
[6]; Tripleurospermum inodorum, 504 h, dosage 20 g/ha
  pest or weed control at 20 g/ha: 100%
[6]; Tripleurospermum inodorum, 504 h, dosage 80 g/ha
  pest or weed control at 80 g/ha: 100%
[7]; Setaria viridis, 504 h
  pest or weed control at 80 g/ha: 100%
[8]; Viola tricolor, 504 h, dosage 20 g/ha
  pest or weed control at 20 g/ha: 100%
[8]; Viola tricolor, 504 h, dosage 80 g/ha
  pest or weed control at 80 g/ha: 100%
[9]; dosage 20 g/ha
  pest or weed control at 20 g/ha: 100%
[9]; dosage 80 g/ha
  pest or weed control at 80 g/ha: 100%
[10]; Abutilon theophrasti, 504 h
  pest or weed control at 20 g/ha: 80%
[11]; Avena fatua, 504 h, 5 g/ha
  pest or weed control at 5 g/ha: 80%
[11]; Avena fatua, 504 h, 20 g/ha
  pest or weed control at 20 g/ha: 90%
[12]; Echinochloa crus-galli, 504 h, dosage 20 g/ha
  pest or weed control at 20 g/ha: 80%
[13]; Setaria viridis, 504 h
  pest or weed control at 20 g/ha: 80%

## CSc1c(C(=O)Nc2nnnn2C)ccc(C(F)F)c1C(=O)NC(C)C1CC1 (stereo not shown) [Example 1-353]
[1]; [21]
  Pre-emergence action against ABUTH (herbicidal activity): 100%
[1]; dosage 20 g/ha, scored visually after 3 weeks vs untreated controls, 100% = plants have died, 0% = like control plants
  Pre-emergence action against ABUTH (herbicidal activity in percent): 100%
[2]
  Pre-emergence action against ALOMY (herbicidal activity): 90%
[3]; 20 g/ha, scored visually after 3 weeks vs untreated controls, 100% = plants have died, 0% = like control plants
  Pre-emergence action against AMARE in %: 100%
[3]; [21]
  Pre-emergence action against AMARE in %: 100%
[5]; 20 g/ha
  Pre-emergence action against ECHCG in %: 90%
[5]; 80 g/ha
  Pre-emergence action against ECHCG in %: 100%
[6]; dosage 20 g/ha
  Pre-emergence action against MATIN in %: 100%
[6]; dosage 80 g/ha
  Pre-emergence action against MATIN in %: 100%
[7]
  Pre-emergence action against SETVI in %: 100%
[14]
  Pre-emergence action against VERPE in %: 100%
[8]; dosage 20 g/ha
  Pre-emergence action against VIOTR in %: 100%
[8]; dosage 80 g/ha
  Pre-emergence action against VIOTR in %: 100%
[10]
  Post-emergence action against ABUTH in %: 80%
[15]
  Post-emergence action against ALOMY in %: 80%
[16]
  Post-emergence action at 20 g/ha against AMARE in %: 100%
[11]; 20 g/ha
  Post-emergence action at 20 g/ha against AVEFA in %: 80%
[12]; dosage 5 g/ha
  Post-emergence action against ECHCG in %: 100%
[12]; dosage 20 g/ha
  Post-emergence action against ECHCG in %: 100%
[17]; dosage 5 g/ha
  Post-emergence action against MATIN in %: 80%
[17]; dosage 20 g/ha
  Post-emergence action against MATIN in %: 90%
[18]
  Post-emergence action against PHBPU in %: 90%
[13]
  Post-emergence action against SETVI in %: 100%
[19]; 5 g/ha
  Post-emergence action against VERPE in %: 80%
[19]; 20 g/ha
  Post-emergence action against VERPE in %: 90%
[20]; 5 g/ha
  Post-emergence action against VIOTR in %: 100%
[20]; 20 g/ha
  Post-emergence action against VIOTR in %: 100%
